The results in this text go back to PubChem BioAssay (NCI).

Some test systems named below: RPMI-8226 leukemia; T-47D breast; MDA-MB-435; SNB-75 CNS; SK-MEL-2 melanoma; MDA-MB-231 breast; A549 NSCLC; 786-0 renal; NCI-H226 lung; OVCAR-8 ovarian; MDA-N.
Common to all, as to experiment: NCI-60 cell line screen, 48 h

SMILES strings stand for the structures. “And” between values parts separate entries of the source, which are not always exact repeats. Equal entries are not always repeated.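 Five compound concentrations were applied to cells in 96-well plates for 48 hours; endpoints were derived by simple linear interpolation of the resulting dose-response curve. Here, GI50 denotes the concentration required for 50% inhibition of growth. TGI denotes the concentration required for complete inhibition of growth.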

`CC(C)=CCC/C(C)=C/CC/C(C)=C/[C@@H]1[C@@H](CO)[C@]1(C)CC/C=C(\C)CCC=C(C)C`: the TGI is 71.8 µM with RPMI-8226 leukemia; greater than 100 µM in the experiment on T-47D breast; greater than 100 µM in the experiment on MDA-MB-435; greater than 100 µM in the experiment on SNB-75 CNS; greater than 100 µM in the experiment with SK-MEL-2 melanoma; 52.2 µM in the experiment with MDA-MB-231 breast. Also, the TGI with A549 NSCLC is greater than 100 µM; in the experiment with 786-0 renal, 42.9 µM; in the experiment with NCI-H226 lung, 44.5 µM; in the experiment on OVCAR-8 ovarian, 32.7 µM.
For the molecule `CCCCCCOC(=O)C(N)Cc1ccc(OC)cc1` (centres undefined), the TGI in the experiment on T-47D breast, with MDA-MB-435, in the experiment with SNB-75 CNS, in the experiment on SK-MEL-2 melanoma, in the experiment on MDA-MB-231 breast and in the experiment on A549 NSCLC was greater than 100 µM in each case. Also, the TGI in the experiment with 786-0 renal, in the experiment with NCI-H226 lung and with OVCAR-8 ovarian was greater than 100 µM in each case.
With `CC1=NN(c2cccc(Cl)c2)C(=N/c2nc3ccccc3s2)/C1=C\C=C\c1ccccc1`, the TGI is 81.2 µM in the experiment on RPMI-8226 leukemia; greater than 100 µM in the experiment with MDA-N; greater than 100 µM in the experiment with T-47D breast; greater than 100 µM in the experiment on MDA-MB-435; greater than 100 µM in the experiment with 786-0 renal; greater than 100 µM in the experiment on NCI-H226 lung. Also, the TGI with OVCAR-8 ovarian is greater than 100 µM.
`COC1OC(C(=O)CP(=O)(OC)OC)C(OCc2ccccc2)C(OCc2ccccc2)C1OCc1ccccc1` (centres undefined): the TGI is 29.8 µM and 30.8 µM in the experiment on MDA-N; 39.6 µM and 43.7 µM in the experiment with T-47D breast; 31.8 µM and 35.9 µM in the experiment with MDA-MB-435; 29.9 µM and 30.6 µM with SNB-75 CNS; 30.7 µM and 31.3 µM with SK-MEL-2 melanoma; 31.7 µM and 29.9 µM with MDA-MB-231 breast. In addition, the TGI in the experiment on A549 NSCLC is 31.2 µM and 31.9 µM; with 786-0 renal, 31.3 µM and 31.4 µM; in the experiment with NCI-H226 lung, 39.5 µM and 35.1 µM; with OVCAR-8 ovarian it was 36.8 µM and 44.5 µM.
Turning to `Cc1cc(N2CCOCC2)nc(N(CCCNc2ccnc3cc(Cl)ccc23)Cc2ccc3c(c2)OCO3)n1`, the GI50 in the experiment with RPMI-8226 leukemia is 1450 nM; in the experiment with T-47D breast it was 1410 nM; with SNB-75 CNS, 1500 nM; in the experiment with SK-MEL-2 melanoma it was 1260 nM; with MDA-MB-231 breast it was 1680 nM; in the experiment with A549 NSCLC it was 1610 nM. Further, the GI50 in the experiment with OVCAR-8 ovarian was 1850 nM. The TGI with RPMI-8226 leukemia stood at 4 µM; in the experiment on T-47D breast, 3.93 µM; in the experiment on SNB-75 CNS, 2.93 µM; in the experiment with SK-MEL-2 melanoma, 2.66 µM; in the experiment on MDA-MB-231 breast it was 3.32 µM; with A549 NSCLC, 3.12 µM. In addition, the TGI in the experiment with OVCAR-8 ovarian came to 4.09 µM.
On to `CCOc1cc(NC(C)=O)ccc1C(=O)N/N=C/c1ccco1`, for which the TGI in the experiment with RPMI-8226 leukemia, with MDA-N, in the experiment with T-47D breast, with MDA-MB-435, with SNB-75 CNS and in the experiment with SK-MEL-2 melanoma was greater than 100 µM throughout. Also, the TGI in the experiment with MDA-MB-231 breast, in the experiment with 786-0 renal, in the experiment on NCI-H226 lung and in the experiment on OVCAR-8 ovarian was greater than 100 µM each time.
For the molecule `COC(=O)c1c(O)ccc2c1c1c(n2Cc2ccccn2)C(=O)c2ccccc2C1`, the TGI with RPMI-8226 leukemia was 59.9 µM; in the experiment with MDA-N, greater than 100 µM; with MDA-MB-435, greater than 100 µM; in the experiment with SNB-75 CNS, greater than 100 µM; in the experiment with SK-MEL-2 melanoma it was greater than 100 µM; in the experiment on MDA-MB-231 breast, greater than 100 µM. Further, the TGI in the experiment with A549 NSCLC, in the experiment on 786-0 renal, in the experiment on NCI-H226 lung and with OVCAR-8 ovarian was greater than 100 µM in each case.
Take `NC(CCc1ccccc1)(C(=O)O)c1ccccc1` (centres undefined): the TGI in the experiment with MDA-N, in the experiment on T-47D breast, in the experiment on MDA-MB-435, in the experiment on SNB-75 CNS, in the experiment on SK-MEL-2 melanoma and in the experiment with MDA-MB-231 breast was greater than 100 µM each time. Further, the TGI with A549 NSCLC, with 786-0 renal, with NCI-H226 lung and in the experiment with OVCAR-8 ovarian was greater than 100 µM in each case.
For the molecule `COc1cc(S(=O)(=O)N/N=C/C=C/c2ccccc2)c(OC)cc1NC(C)=O`, the TGI in the experiment with RPMI-8226 leukemia was 60.9 µM; in the experiment on MDA-N it was greater than 100 µM; in the experiment on T-47D breast, greater than 100 µM; in the experiment on MDA-MB-435 it was greater than 100 µM; in the experiment with SNB-75 CNS, greater than 100 µM; in the experiment with SK-MEL-2 melanoma, greater than 100 µM. Moreover, the TGI with A549 NSCLC, with 786-0 renal and in the experiment with OVCAR-8 ovarian was greater than 100 µM each time.
For `CC(C)(C)OC(=O)N1C(C2=COc3ccccc3O2)=COc2cccnc21`, the TGI in the experiment on RPMI-8226 leukemia is 4.43 µM; in the experiment on MDA-N, 4.68 µM; with T-47D breast, 3.45 µM; in the experiment with MDA-MB-435, 3.67 µM; with SNB-75 CNS, 29.2 µM; in the experiment on SK-MEL-2 melanoma it was 3.96 µM. Moreover, the TGI in the experiment with MDA-MB-231 breast was 4.01 µM; in the experiment with A549 NSCLC, 4.38 µM; with 786-0 renal it was 3.66 µM; in the experiment on NCI-H226 lung, 4.31 µM; with OVCAR-8 ovarian, 4.06 µM.
As to `CN(C)C/C=C(/c1ccc(Br)cc1)c1cccnc1`, the TGI in the experiment on RPMI-8226 leukemia is greater than 100 µM; with MDA-N, greater than 100 µM; in the experiment on T-47D breast, greater than 100 µM; with MDA-MB-435 it was greater than 100 µM; in the experiment on SNB-75 CNS, greater than 100 µM; with SK-MEL-2 melanoma, 37.6 µM. Besides, the TGI in the experiment with MDA-MB-231 breast, in the experiment on A549 NSCLC, in the experiment on 786-0 renal, with NCI-H226 lung and in the experiment on OVCAR-8 ovarian was greater than 100 µM each time.
`COc1cccc(/C=N/[N-]C(N)=O)c1[O-].[Cu+2].[OH3+].c1cnc2c(c1)ccc1cccnc12`: the TGI turned out to be 91.4 µM with RPMI-8226 leukemia; 24.4 µM in the experiment on SNB-75 CNS; 32.1 µM in the experiment with SK-MEL-2 melanoma; 28.7 µM in the experiment with A549 NSCLC; 20.2 µM with 786-0 renal; 42.5 µM in the experiment with NCI-H226 lung. Also, in the experiment on OVCAR-8 ovarian, the TGI worked out at 31.9 µM.
As for `O=S1c2ccccc2N=C(c2ccc3ccccc3c2)CC1c1ccccc1` (centres undefined), the TGI in the experiment with RPMI-8226 leukemia came out at 94.4 µM; in the experiment on SNB-75 CNS it was 38.5 µM; in the experiment on SK-MEL-2 melanoma, 92.3 µM; with A549 NSCLC it was 41.3 µM; with NCI-H226 lung it was 78.9 µM; with OVCAR-8 ovarian it was 30 µM.
